# Assay results taken from paper PMC10761119, “Phosphorylation-state dependent intraneuronal sorting of Aβ differentially impairs autophagy and the endo-lysosomal system” (Autophagy, 2023).
# Experiments:
# SH-SY5Y cells = assay: Lysosomal acidification assay using LysoSensor-dextran; format: cell-based, human; details: Aβ 1 µM, within 24 h of incubation; ΔpH = pHfinal (t = 24 h) − pHinitial (control, t = 0 h); n = 12, N = 4
# Description: Cells were cultured on coverslips and treated with Aβ variants (primary cortical neurons, DIV14–500 nM, 4 h; SH-SY5Y cells, D3–1 μM, 24 h) in presence of 50 µM LysoSensor-dextran probe (ThermoFisher Scientific, L7545) in cell culture media for the indicated time points. Cells were washed and stained as described before. For fluorescence analyses, cells were cultured and treated in a 96-well plate for the indicated time points, and washed thrice with PBS to remove the excess probe. Fluorescence intensity analysis of blue and green channel was done using a multiplate reader (Tecan Life Sciences, Switzerland). […] was computed from the fluorescence values measured at λEx 340 nm and λEm 450 nm (blue channel) and λEm 535 nm (green channel), respectively. Values were normalized to absorbance at 340 nm and protein content per well, and represented as change of LysoSensor acidification with respect to control cells (Figure 7B and S7C-D). pH values were computed by preparing a standard curve, wherein cells treated with 1 µM nigericin (Sigma Aldrich, N7143) and 1 µM monensin (Sigma Aldrich, M5273) were incubated with media of pH 4.5, 7.5 and 9.2. As independent controls, 100 nM bafilomycin A1 (Sigma Aldrich, 553210), 1 mM NH4Cl- and 10 µM rapamycin (Cayman Chemicals, 19438)-treated cells were also used as independent controls to validate the measurements. Change in LysoSensor pH (ΔpH) for Aβ treated cells was quantified using the formula ΔpH = pHfinal (control/Aβ, t = 24 h) − pHinitial (control, t = 0 h). Box plots (Figure 7C and S7E) depict the overall distribution of data, and each data point represents average values from an independent experiment; n = 12, N = 4.
# primary cortical neurons = assay: Subcellular fractionation by differential centrifugation and Aβ ELISA; format: cell-based, mouse; details: Aβ 500 nM, 4 h; for Aβ levels in the isolated membrane fraction (16,100 g pellet): ELISA 82E1, n = 6, N = 3
# Description: [Worded in the source for another cell line; used here, by the source, with some conditions changed.] SH-SY5Y cells seeded on D1, were treated with Aβ variants (1 μM) on D3 in DMEM/F-12 media without serum and antibiotics. Control treatment included treatment with equal volume of 10 mM NaOH solution used for preparing the Aβ stock solutions, in respective cell culture medium. SH-SY5Y cells, after 16 h of transient expression of the reporter constructs, were treated with different Aβ variants, autophagy modulator substrates and respective controls in DMEM/F-12, FCS^− PS^− media for the mentioned time points. After treatment, cells were washed twice with PBS and with 0.025% trypsin-EDTA in PBS to get rid of cell bound Aβ, followed by subsequent washings with PBS again. Cells were either collected by scraping using a cell-scraper or fixed with 4% PFA-PBS for 15 min at RT, for further immunocytochemistry experiments. Collected treatment media was centrifuged at 1000 g for 5 min, pellet discarded and supernatant frozen at −20°C until further usage.
# Cells were collected by scraping and mechanically homogenized in hypotonic D buffer (10 mM Tris-HCl, pH 7.4, 10 mM NaCl, 0.1 mM EGTA, 25 mM glycerol 2-phosphate, 1 mM DTT) containing protease and phosphatase inhibitors by repeated suspension through a 23 G × 1” needle. Post-nuclear supernatant (PNS) was collected by centrifugation of the mechanically homogenized cellular material at 2,000 g for 5 min. The pellet was the nuclear material. […] The nuclear fraction was the supernatant collected after centrifugation at 16,100 g for 15 min. The PNS collected from the first step was centrifuged at 16,100 g for 60 min, and supernatant was used as the crude cytosolic fraction. The pellet contained the membrane materials, which were re-homogenized in hypotonic D buffer and again centrifuged at 16,100 g for 60 min. The supernatant was discarded, pellet was resuspended in STEN-lysis buffer (20 mM Tris-HCl, pH 7.5, 150 mM NaCl, 1 mM EDTA, 1 mM EGTA, 1% Triton X-100, 2.5 mM sodium pyrophosphate [Sigma Aldrich, P1835], 1 mM β-glycerophosphate [Sigma Aldrich, G9422]) containing protease and phosphatase inhibitors, and the membrane fraction was the supernatant collected after centrifugation at 16,100 g for 15 min. The crude cytosolic fraction was then further fractionated at 100,000 g for 70 min at 4°C under vacuum. The resultant supernatant was the soluble cytosolic fraction. The pellet was resuspended in STEN lysis buffer and centrifuged at 16,100 g for 15 min. The resultant supernanant represented the insoluble cytosolic fraction.
# Wells were further tapped dry and incubated with 4G8-biotin/82E1-biotin detection antibodies (0.05–0.1 μg/well) at RT for 2 h followed by subsequent washing and incubation with streptavidin conjugated HRP complex (1:5000) for another 2 h. Wells were then washed thoroughly four times and filled with 100 µl of 3,3,5,5-tetramethylbenzidine substrate (TMB; ThermoFisher Scientific, N301) in each well and incubated at 25°C until sufficient blue color developed (time ranged from 2–15 min depending on the different capture antibodies used in the experiment). 100 µl of stop solution (4 M H2SO4) was added to each well. Absorbance values from each well were read at a Tecan plate reader at a wavelength of 450 nm and background measurement at 620 nm. Multiple readings were recorded for a single well and averaged. In each experiment, each sample was analyzed in technical duplicate/triplicate wells as indicated and average values from an independent experiment are presented (Figures 1E, 3G, SA-D and Table S2).
Substance,"Decrease in the pH (LysoSensor response, ΔpH) (SH-SY5Y cells)","Aβ levels in the isolated membrane fraction (16,100 g pellet) (primary cortical neurons)","Aβ levels in the total cytosolic fraction (supernatant after 16,100 g spin) (primary cortical neurons; ELISA, followed by p-Ser8Aβ and npAβ)","Aβ levels in the 100,000 g pellet (insoluble cytosolic fraction) (primary cortical neurons; ELISA, compared to npAβ and p-Ser26Aβ)","Aβ levels in the 100,000 g supernatant (soluble cytosolic fraction) (primary cortical neurons; ELISA, compared to p-Ser26Aβ)"
"non-phosphorylated amyloid-β [npAβ, reference compound]",0.13 ± 0.11 units,significantly lower,–,–,–
amyloid-β phosphorylated at serine residue 26 [p-Ser26Aβ],0.17 ± 0.12 units,significantly lower,highest levels,–,–
amyloid-β phosphorylated at serine residue 8 [p-Ser8Aβ],did not show any change,highest levels,–,significantly higher,significantly lower
